Laboratory results: ChEMBL document CHEMBL1201862, “PubChem BioAssay data set” (2004)
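These data come from cells grown in 96-well plates and exposed to compound for 48 hours at five concentrations. At the GI50, growth is halved.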 Calls of active or inactive are those of the source. No stated cut-off is given here; in the data, active = GI50 up to about 1.1 µM and inactive = higher.

How the values were obtained:
Test in all cases: NCI-60 cell line screen, 48 h
[1] = system: SF-295
[2] = system: 786-0
[3] = system: UACC-257
[4] = system: NCI-H23
[5] = system: HL-60
[6] = system: DLD-1
[7] = system: HOP-18
[8] = system: LOX IMVI
[9] = system: NCI-H226
[10] = system: KM12
[11] = system: SK-OV-3
[12] = system: HCC 2998
[13] = system: OVCAR-3
[14] = system: Malme-3M
[15] = system: SF-268
[16] = system: SR

Row | Compound | GI50 [1] | GI50 [2] | GI50 [3] | GI50 [4] | GI50 [5] | GI50 [6] | GI50 [7] | GI50 [8] | GI50 [9] | GI50 [10] | GI50 [11] | GI50 [12] | GI50 [13] | GI50 [14] | GI50 [15] | GI50 [16]
1 | Cn1cccc1/C=C/c1cc(Br)c(/C=C/c2cccn2C)cc1Br | 20.9 µM (inactive) | 6.12 µM (inactive) | 30.6 µM (inactive) | > 10 µM (inactive) | 13.6 µM (inactive) | 0.643 µM (active) | 5 µM (inactive) | 18.3 µM (inactive) | 12.3 µM (inactive) | 7.23 µM (inactive) | 14.8 µM (inactive) | 2.62 µM (inactive) | 16.1 µM (inactive) | 10.4 µM (inactive) | 20.5 µM (inactive) | 
2 | COc1ccc(C(=O)C(C(=O)CCC(=O)Nc2cccc(Cl)c2)c2ccc(OC)cc2)cc1 (centres undefined) | > 100 µM (inactive) | > 100 µM (inactive) | > 100 µM (inactive) | > 100 µM (inactive) | > 100 µM (inactive) | > 100 µM (inactive) | 53.3 µM (inactive) |  | > 100 µM (inactive) | > 100 µM (inactive) | > 100 µM (inactive) | > 100 µM (inactive) | > 100 µM (inactive) | > 100 µM (inactive) | > 100 µM (inactive) | > 100 µM (inactive)
3 | Cc1cc2c(cc1C)[n+]([O-])c(C(=O)C/C(=N/OCCCc1ccccc1)C(=O)Nc1cc(Cl)ccc1Cl)c(C)[n+]2[O-] | > 100 µM (inactive) | > 100 µM (inactive) | > 100 µM (inactive) | > 100 µM (inactive) | > 100 µM (inactive) | > 100 µM (inactive) | > 100 µM (inactive) | > 100 µM (inactive) | > 100 µM (inactive) | > 100 µM (inactive) | > 100 µM (inactive) | > 100 µM (inactive) | > 100 µM (inactive) | > 100 µM (inactive) | > 100 µM (inactive) | 
4 | Cc1cn(C2C=CC(=O)C(C)O2)c(=O)[nH]c1=O (centres undefined) | 17.5 µM (inactive) | 18 µM (inactive) | 14 µM (inactive) | 18.1 µM (inactive) | 14.7 µM (inactive) | 14.1 µM (inactive) | 15 µM (inactive) | 13.2 µM (inactive) | 19.5 µM (inactive) | 16.1 µM (inactive) | 33.8 µM (inactive) |  | 17.4 µM (inactive) | 13.2 µM (inactive) | 18.2 µM (inactive) | 18.3 µM (inactive)
5 | COc1ccc2c(c1OC)C(C=C(c1ccccc1)c1ccccc1)CN(C)C2 (centres undefined) | 16.2 µM (inactive) | 16.7 µM (inactive) | 21.8 µM (inactive) | 22.4 µM (inactive) |  | 23.4 µM (inactive) | 17.6 µM (inactive) |  | 22.6 µM (inactive) | 18.9 µM (inactive) | 27.4 µM (inactive) | 24.9 µM (inactive) | 12.8 µM (inactive) | 20.2 µM (inactive) | 27.1 µM (inactive) | 
6 | CCOC(=O)/C(C#N)=C(O)/C(=C/c1ccccc1Cl)NC(=O)c1ccccc1 | > 100 µM (inactive) | > 100 µM (inactive) | > 100 µM (inactive) | > 100 µM (inactive) | > 100 µM (inactive) | > 100 µM (inactive) | > 100 µM (inactive) |  | > 100 µM (inactive) | > 100 µM (inactive) | > 100 µM (inactive) | > 100 µM (inactive) | > 100 µM (inactive) | > 100 µM (inactive) | > 100 µM (inactive) | 
7 | O=C1C2C3C=C4c5ccccc5N(c5ccccc5)C4(C2C(=O)N1c1ccccc1)C1C(=O)N(c2ccccc2)C(=O)C31 (centres undefined) | > 100 µM (inactive) | > 100 µM (inactive) | 42.8 µM (inactive) | > 100 µM (inactive) | > 100 µM (inactive) | > 100 µM (inactive) | > 100 µM (inactive) | > 100 µM (inactive) |  | > 100 µM (inactive) | > 10 µM (inactive) | > 100 µM (inactive) |  | 7.67 µM (inactive) | > 100 µM (inactive) | 6.35 µM (inactive)
8 | CCOC(=O)C1=C(C)N(NC(=O)Nc2ccccc2)C2(N)N(NC(=O)Nc3ccccc3)C(C)=C(C(=O)OCC)C12C(=O)OCC (centres undefined) | 47.8 µM (inactive) | 45.3 µM (inactive) | 67.3 µM (inactive) | 64 µM (inactive) | 35.2 µM (inactive) | 53.8 µM (inactive) | 26.7 µM (inactive) | 36.2 µM (inactive) |  | > 100 µM (inactive) | 29.9 µM (inactive) | 27.4 µM (inactive) | 49.2 µM (inactive) | 33 µM (inactive) | 24.8 µM (inactive) | 34 µM (inactive)
9 | CCCCCCCCCCCCCCCCc1c(O)nc(NN)nc1C(=O)OC | > 50 µM (inactive) | > 50 µM (inactive) | > 50 µM (inactive) | > 50 µM (inactive) | > 50 µM (inactive) | > 50 µM (inactive) | > 50 µM (inactive) | > 50 µM (inactive) |  | > 50 µM (inactive) | > 50 µM (inactive) | > 50 µM (inactive) | > 50 µM (inactive) | > 50 µM (inactive) | > 50 µM (inactive) | 
10 | O=C1c2c(c3c4ccccc4n4c3c3c2c2ccccc2n3C/C=C\C4)C(=O)N1Cc1ccccc1 | > 100 µM (inactive) | > 100 µM (inactive) | > 100 µM (inactive) | > 100 µM (inactive) | > 100 µM (inactive) | > 100 µM (inactive) | > 100 µM (inactive) | > 100 µM (inactive) | > 100 µM (inactive) | > 100 µM (inactive) | > 100 µM (inactive) | > 100 µM (inactive) | > 100 µM (inactive) | > 100 µM (inactive) |  | > 100 µM (inactive)
11 | Cc1ccc(SSCCCCS(=O)O)cc1 | 26.4 µM (inactive) | 32 µM (inactive) | 18.5 µM (inactive) | 17.9 µM (inactive) | 3.89 µM (inactive) | 25.4 µM (inactive) | 41.9 µM (inactive) | 9.79 µM (inactive) |  | 18.2 µM (inactive) | 34.2 µM (inactive) | 25.1 µM (inactive) | 17.8 µM (inactive) | 19.2 µM (inactive) | 10 µM (inactive) | 
12 | O=C(O)C[C@H]1CCCCC12CCOC2=O (some centres undefined) | > 100 µM (inactive) | > 100 µM (inactive) | > 100 µM (inactive) | > 100 µM (inactive) | > 100 µM (inactive) | > 100 µM (inactive) | > 100 µM (inactive) | > 100 µM (inactive) | > 100 µM (inactive) | > 100 µM (inactive) | > 100 µM (inactive) | > 100 µM (inactive) | > 100 µM (inactive) |  | > 100 µM (inactive) | > 100 µM (inactive)
13 | COc1ccc(S(=O)(=O)Nc2ccccc2C(=O)O)cc1 | > 100 µM (inactive) | > 100 µM (inactive) | > 100 µM (inactive) | > 100 µM (inactive) | > 100 µM (inactive) | > 100 µM (inactive) | > 100 µM (inactive) | > 100 µM (inactive) | > 100 µM (inactive) | > 100 µM (inactive) | > 100 µM (inactive) | > 100 µM (inactive) | > 100 µM (inactive) | > 100 µM (inactive) | > 100 µM (inactive) | 
